The molecules below were run against T1, human capsaicin receptor (Homo sapiens, UniProt Q8NER1) (assay: Calcium mobilization assay, determination of antagonist activity). Conditions: capsaicin at EC50; cells expressing human capsaicin receptor; Example 6.
T1 construct: expressed in transfected cells; host or cells: HEK293, stably transfected with pBK-CMV construct
Type: cell-based
How it was run: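 HEK293 cells stably expressing full-length human TRPV1, loaded with Fluo-3 AM in KRH buffer pH 7.4, preincubated with compound (final 1-5 µM) in the dark at room temperature for 0.5-6 h, then stimulated with capsaicin at its EC50. FLIPR fluorescence gave IC50 as concentration halving the capsaicin response.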

T1 sequence (Q8NER1 whole entry): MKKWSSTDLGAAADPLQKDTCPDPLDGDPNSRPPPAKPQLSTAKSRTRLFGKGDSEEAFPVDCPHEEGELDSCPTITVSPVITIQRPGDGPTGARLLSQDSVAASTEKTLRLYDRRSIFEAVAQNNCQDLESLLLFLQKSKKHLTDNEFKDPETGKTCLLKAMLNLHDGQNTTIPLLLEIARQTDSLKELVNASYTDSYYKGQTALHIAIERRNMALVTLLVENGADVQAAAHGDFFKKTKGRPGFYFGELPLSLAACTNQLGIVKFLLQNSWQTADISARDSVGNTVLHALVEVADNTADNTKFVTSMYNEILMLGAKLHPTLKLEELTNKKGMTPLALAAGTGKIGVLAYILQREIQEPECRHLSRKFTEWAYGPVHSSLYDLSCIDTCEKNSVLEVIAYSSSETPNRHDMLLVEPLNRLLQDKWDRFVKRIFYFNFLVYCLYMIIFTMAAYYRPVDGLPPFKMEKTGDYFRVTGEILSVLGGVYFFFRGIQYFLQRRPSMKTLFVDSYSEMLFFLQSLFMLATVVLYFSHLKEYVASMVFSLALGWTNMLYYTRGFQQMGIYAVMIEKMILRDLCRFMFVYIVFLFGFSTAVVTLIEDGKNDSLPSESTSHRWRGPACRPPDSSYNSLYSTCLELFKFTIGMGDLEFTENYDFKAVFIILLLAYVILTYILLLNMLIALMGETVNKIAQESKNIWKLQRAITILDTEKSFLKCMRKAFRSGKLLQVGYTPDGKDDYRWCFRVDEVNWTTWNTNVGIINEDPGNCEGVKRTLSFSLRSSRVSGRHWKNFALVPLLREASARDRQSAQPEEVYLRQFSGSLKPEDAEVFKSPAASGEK

| Structure (SMILES) | IC50 [µM] |
| --- | --- |
| Cc1cc(C(=O)NCCCN(C)C)cnc1N1CCN(c2cc(-c3ccc(F)cc3)nc(N3CCCC3C)n2)CC1 (stereo not drawn) [Example 116, N-[3-(dimethylamino)propyl]-6-{4-[6-(4-fluorophenyl)-2-(2-methylpyrrolidin-1-yl)pyrimidin-4-yl]piperazin-1-yl}-5-methylnicotinamide] | ≤ 1 |
| COCC(C)NC(=O)c1cnc(N2CCN(c3cc(-c4ccc(F)cc4)nc(N4CCCC4C)n3)CC2)c(C)c1 (stereo not drawn) [Example 117, 6-{4-[6-(4-fluorophenyl)-2-(2-methylpyrrolidin-1-yl)pyrimidin-4-yl]piperazin-1-yl}-N-(2-methoxy-1-methylethyl)-5-methylnicotinamide] | ≤ 1 |
| Cc1cc(C(=O)NCc2cccs2)cnc1N1CCN(c2cc(-c3ccc(F)cc3)nc(N3CCCC3C)n2)CC1 (stereo not drawn) [Example 118, 6-{4-[6-(4-fluorophenyl)-2-(2-methylpyrrolidin-1-yl)pyrimidin-4-yl]piperazin-1-yl}-5-methyl-N-(2-thienylmethyl) nicotinamide] | ≤ 1 |
| CCOCCNC(=O)c1cnc(N2CCN(c3cc(-c4ccc(F)cc4)nc(N4CCCC4C)n3)CC2)c(C)c1 (stereo not drawn) [Example 119, N-(2-ethoxyethyl)-6-{4-[6-(4-fluorophenyl)-2-(2-methylpyrrolidin-1-yl)pyrimidin-4-yl]piperazin-1-yl}-5-methylnicotinamide] | ≤ 1 |
| Cc1cc(C(=O)NCC(F)(F)F)cnc1N1CCN(c2cc(-c3ccc(F)cc3)nc(N3CCCC3C)n2)CC1 (stereo not drawn) [Example 120, 6-{4-[6-(4-fluorophenyl)-2-(2-methylpyrrolidin-1-yl)pyrimidin-4-yl]piperazin-1-yl}-5-methyl-N-(2,2,2-trifluoroethyl)nicotinamide] | ≤ 1 |
| Cc1cc(C(=O)N(C)Cc2ccccc2)cnc1N1CCN(c2cc(-c3ccc(F)cc3)nc(N3CCCC3C)n2)CC1 (stereo not drawn) [Example 121, N-benzyl-6-{4-[6-(4-fluorophenyl)-2-(2-methylpyrrolidin-1-yl)pyrimidin-4-yl]piperazin-1-yl}-N,5-dimethylnicotinamide] | ≤ 1 |

Continued, values first:

| IC50 [µM] | Structure (SMILES) |
| --- | --- |
| ≤ 1 | Cc1cc(C(=O)N2CCCC2)cnc1N1CCN(c2cc(-c3ccc(F)cc3)nc(N3CCCC3C)n2)CC1 (stereo not drawn) [Example 122, 4-(4-fluorophenyl)-2-(2-methylpyrrolidin-1-yl)-6-{4-[3-methyl-5-(pyrrolidin-1-ylcarbonyl)pyridin-2-yl]piperazin-1-yl}pyrimidine] |
| ≤ 1 | Cc1cc(C(=O)N2CCCCC2)cnc1N1CCN(c2cc(-c3ccc(F)cc3)nc(N3CCCC3C)n2)CC1 (stereo not drawn) [Example 123, 4-(4-fluorophenyl)-6-{4-[3-methyl-5-(piperidin-1-ylcarbonyl)pyridin-2-yl]piperazin-1-yl}-2-(2-methylpyrrolidin-1-yl)pyrimidine] |
| ≤ 1 | Cc1cc(C(=O)N2CCOCC2)cnc1N1CCN(c2cc(-c3ccc(F)cc3)nc(N3CCCC3C)n2)CC1 (stereo not drawn) [Example 124, 4-[(6-{4-[6-(4-fluorophenyl)-2-(2-methylpyrrolidin-1-yl)pyrimidin-4-yl]piperazin-1-yl}-5-methylpyridin-3-yl)carbonyl]morpholine] |
| ≤ 1 | Cc1cc(C(=O)N2CCC(C)CC2)cnc1N1CCN(c2cc(-c3ccc(F)cc3)nc(N3CCCC3C)n2)CC1 (stereo not drawn) [Example 125, 4-(4-fluorophenyl)-6-(4-{3-methyl-5-[(4-methylpiperidin-1-yl)carbonyl]pyridin-2-yl}piperazin-1-yl)-2-(2-methylpyrrolidin-1-yl)pyrimidine] |
| ≤ 1 | Cc1cc(C(=O)N2CCCCCC2)cnc1N1CCN(c2cc(-c3ccc(F)cc3)nc(N3CCCC3C)n2)CC1 (stereo not drawn) [Example 126, l-[(6-{4-[6-(4-fluorophenyl)-2-(2-methylpyrrolidin-1-yl)pyrimidin-4-yl]piperazin-1-yl}-5-methylpyridin-3-yl)carbonyl]azepane] |
| ≤ 1 | Cc1cc(C(=O)N2CCSCC2)cnc1N1CCN(c2cc(-c3ccc(F)cc3)nc(N3CCCC3C)n2)CC1 (stereo not drawn) [Example 127, 4-[(6-{4-[6-(4-fluorophenyl)-2-(2-methylpyrrolidin-1-yl)pyrimidin-4-yl]piperazin-1-yl}-5-methylpyridin-3-yl)carbonyl] thiomorpholine] |

From patent US8334382B2, “Substituted biaryl piperazinyl-pyridine analogues” (Neurogen Corporation, priority 2004, dated 2012)
